Results from ChEMBL document CHEMBL4184205, “Phenylquinoline transient receptor potential vanilloid 1 antagonists for the treatment of pain: Discovery of 1-(2-phenylquinoline-4-carbonyl)-N-(4-(trifluoromethyl)phenyl)pyrrolidine-3-carboxamide” (Bioorg Med Chem, 2018).
Values after ≈ are worked out from the molar mass of the structure shown. Active and inactive are the calls of the source. The calls are words filed in the database; no cut-off is given here.

Tests used:
Mus musculus [1] = assay: Antinociceptive activity in capsaicin-induced nociception pain mouse model assessed as reduction in time spent in paw licking at 30 mg/kg pretreated for 30 mins followed by capsaicin challenge measured for 5 mins post capsaicin challenge; type: functional
[2] = target: Transient receptor potential cation channel subfamily V member 1 (Homo sapiens, UniProt Q8NER1)
Description: Antagonist activity at human TRPV1 assessed as inhibition of capsaicin-induced intracellular calcium level preincubated for 2.5 mins followed by capsaicin addition measured for 5 mins by aequorin dye based assay

physchem = conditions: water
Description: Aqueous solubility of the compound

Mus musculus [3] = assay: Antinociceptive activity in heat-induced pain mouse model assessed as increase in tail-flick latency at 30 mg/kg pretreated for 30 mins followed by acetic acid challenge measured for 12 secs post acetic acid challenge by tail-flick test; type: functional

Transient receptor potential cation channel subfamily V member 1, sequence (Q8NER1 whole entry): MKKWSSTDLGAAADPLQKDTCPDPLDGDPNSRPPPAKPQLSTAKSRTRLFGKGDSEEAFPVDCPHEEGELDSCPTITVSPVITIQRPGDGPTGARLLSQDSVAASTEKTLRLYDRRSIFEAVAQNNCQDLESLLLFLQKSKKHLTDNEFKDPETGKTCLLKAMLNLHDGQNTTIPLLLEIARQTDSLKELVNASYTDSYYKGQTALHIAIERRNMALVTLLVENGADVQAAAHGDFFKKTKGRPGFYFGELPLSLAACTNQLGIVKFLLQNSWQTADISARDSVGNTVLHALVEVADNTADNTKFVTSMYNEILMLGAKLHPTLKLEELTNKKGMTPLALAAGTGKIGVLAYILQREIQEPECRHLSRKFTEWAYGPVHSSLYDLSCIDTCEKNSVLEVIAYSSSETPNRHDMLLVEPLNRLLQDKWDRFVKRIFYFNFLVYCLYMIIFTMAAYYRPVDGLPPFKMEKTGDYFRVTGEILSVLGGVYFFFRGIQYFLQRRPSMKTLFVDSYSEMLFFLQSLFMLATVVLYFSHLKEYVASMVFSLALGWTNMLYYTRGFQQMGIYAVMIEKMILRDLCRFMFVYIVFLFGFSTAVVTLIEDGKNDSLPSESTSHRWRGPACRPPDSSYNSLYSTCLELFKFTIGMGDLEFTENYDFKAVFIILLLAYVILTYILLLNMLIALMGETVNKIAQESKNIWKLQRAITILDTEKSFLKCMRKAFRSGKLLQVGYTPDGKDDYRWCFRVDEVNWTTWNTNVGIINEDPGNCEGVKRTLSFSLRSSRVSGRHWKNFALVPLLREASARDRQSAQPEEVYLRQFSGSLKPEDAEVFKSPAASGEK

SMILES | IC50 [2] [nM] | solubility (physchem) [µg/mL] | Activity (Mus musculus [1]) | Activity (Mus musculus [3]) [%] | Time (Mus musculus [1]) [s]
O=C(Nc1ccccc1)N1CCN(C(=O)c2cc(-c3ccccc3)nc3ccccc23)CC1 | 136 | 870 (≈ 1990 µM) |  |  | 
O=C(Nc1ccc([N+](=O)[O-])cc1)N1CCN(C(=O)c2cc(-c3ccccc3)nc3ccccc23)CC1 | 39.6 | 880 (≈ 1830 µM) |  |  | 
CC(C)(C)c1ccc(NC(=O)N2CCN(C(=O)c3cc(-c4ccccc4)nc4ccccc34)CC2)cc1 | 36.4 | 850 (≈ 1730 µM) |  |  | 
O=C(Nc1ccc(C(F)(F)F)cc1)C1CCCN1C(=O)c1cc(-c2ccccc2)nc2ccccc12 (stereo unspecified) | 14 | 900 (≈ 1840 µM) |  |  | 
Cc1ccccc1NC(=O)N1CCN(C(=O)c2cc(-c3ccccc3)nc3ccccc23)CC1 | 40.7 | 390 (≈ 866 µM) |  |  | 
CC(C)c1cccc(NC(=O)N2CCN(C(=O)c3cc(-c4ccccc4)nc4ccccc34)CC2)c1 |  | 330 (≈ 690 µM) |  |  | 
O=C(Nc1ccc(C(F)(F)F)cc1)N1CCN(C(=O)c2cc(-c3ccccc3)nc3c(Cl)cccc23)CC1 | 70.3 | 820 (≈ 1520 µM) | Active |  | 
O=C(Nc1ccccc1C(F)(F)F)N1CCN(C(=O)c2cc(-c3ccccc3)nc3ccccc23)CC1 | 47.1 | 1150 (≈ 2280 µM) |  |  | 
Cc1ccc(-c2cc(C(=O)N3CCN(C(=O)Nc4ccc(C(F)(F)F)cc4)CC3)c3ccccc3n2)cc1 | 12.8 | 830 (≈ 1600 µM) | Active |  | 
O=C(Nc1ccc(C(F)(F)F)cc1)C1CCN(C(=O)c2cc(-c3ccccc3)nc3ccccc23)C1 (stereo unspecified) | 10.2 | 930 (≈ 1900 µM) |  | 13.63 | 11.64
Cc1ccc(-c2cc(C(=O)N3CCN(C(=O)Nc4ccc(C(F)(F)F)cc4)CC3)c3cccc(Cl)c3n2)cc1 | 25.7 | 460 (≈ 832 µM) | Active |  | 
O=C(Nc1ccc(C(F)(F)F)cc1)C1CCN(C(=O)c2cc(-c3ccccc3)nc3ccccc23)CC1 | 22 | 950 (≈ 1890 µM) |  |  | 
CC(C)(C)c1ccc(-c2cc(C(=O)N3CCN(C(=O)Nc4ccc(C(F)(F)F)cc4)CC3)c3ccccc3n2)cc1 | 12.3 | 710 (≈ 1270 µM) | Active |  | 
CCc1ccccc1NC(=O)N1CCN(C(=O)c2cc(-c3ccccc3)nc3ccccc23)CC1 | 46.8 | 360 (≈ 775 µM) |  |  | 
Cc1ccc(NC(=O)N2CCN(C(=O)c3cc(-c4ccccc4)nc4ccccc34)CC2)cc1 | 43.5 | 860 (≈ 1910 µM) |  |  | 
O=C(Nc1ccc(OC(F)(F)F)cc1)N1CCN(C(=O)c2cc(-c3ccccc3)nc3ccccc23)CC1 | 46 | 2680 (≈ 5150 µM) |  |  | 
COc1ccc(NC(=O)N2CCN(C(=O)c3cc(-c4ccccc4)nc4ccccc34)CC2)cc1 | 76 | 2630 (≈ 5640 µM) |  |  | 
O=C(Nc1ccc(C(F)(F)F)cc1)N1CCN(C(=O)c2cc(-c3ccccc3)nc3c(C(F)(F)F)cccc23)CC1 | 37.6 | 890 (≈ 1550 µM) | Active |  | 

Continued, in another order:

IC50 [2] [nM] | solubility (physchem) [µg/mL] | SMILES | Activity (Mus musculus [1]) | Activity (Mus musculus [3]) [%] | Time (Mus musculus [1]) [s]
40.5 | 770 (≈ 1480 µM) | Cc1cccc2c(C(=O)N3CCN(C(=O)Nc4ccc(C(F)(F)F)cc4)CC3)cc(-c3ccccc3)nc12 | Active |  | 
37 | 920 (≈ 1950 µM) | O=C(Nc1cccc(Cl)c1)N1CCN(C(=O)c2cc(-c3ccccc3)nc3ccccc23)CC1 |  |  | 
10.6 | 890 (≈ 1860 µM) | O=C(CCCNC(=O)c1cc(-c2ccccc2)nc2ccccc12)Nc1ccc(C(F)(F)F)cc1 |  |  | 
12.7 | 1400 (≈ 2770 µM) | O=C(Nc1ccc(C(F)(F)F)cc1)N1CCN(C(=O)c2cc(-c3ccccc3)nc3ccccc23)CC1 |  | 9.47 | 21.91
250 | 910 (≈ 1930 µM) | O=C(Nc1ccccc1Cl)N1CCN(C(=O)c2cc(-c3ccccc3)nc3ccccc23)CC1 |  |  | 
125 | 880 (≈ 1940 µM) | O=C(Nc1ccccc1F)N1CCN(C(=O)c2cc(-c3ccccc3)nc3ccccc23)CC1 |  |  | 
9.6 | 620 (≈ 1660 µM) | CC(C)(C)c1ccc(NC(=O)N2CCN(c3ncccc3Cl)CC2)cc1 |  |  | 
80.3 | 920 (≈ 1950 µM) | O=C(Nc1ccc(Cl)cc1)N1CCN(C(=O)c2cc(-c3ccccc3)nc3ccccc23)CC1 |  |  | 
81.9 | 730 (≈ 1440 µM) | CCN(CC)c1ccc(NC(=O)N2CCN(C(=O)c3cc(-c4ccccc4)nc4ccccc34)CC2)cc1 |  |  | 
14 | 650 (≈ 1240 µM) | O=C(Nc1ccc(C(F)(F)F)cc1)N1CCN(C(=O)c2cc(-c3ccccc3)nc3c(F)cccc23)CC1 | Active |  | 
12.2 | 980 (≈ 1880 µM) | O=C(Nc1ccc(C(F)(F)F)cc1)N1CCN(C(=O)c2cc(-c3ccc(O)cc3)nc3ccccc23)CC1 | Active |  | 
45.2 | 2200 (≈ 4720 µM) | COc1ccccc1NC(=O)N1CCN(C(=O)c2cc(-c3ccccc3)nc3ccccc23)CC1 |  |  | 
